From ChEMBL document CHEMBL1201862, “PubChem BioAssay data set” (2004)
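How tested: cells in 96-well plates exposed to compound for 48 hours at five concentrations. Abbreviation: GI50, concentration required for 50% inhibition of growth.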 Calls of active or inactive are those of the source. No stated cut-off is given here; in the data, active = GI50 up to about 1.1 µM and inactive = higher. *1 amine or outer side, *2 acyl side, *3 side chain or, on linkers, in order; H or OH if unused. Where a SMILES comes first, the peptide text is derived from it. Bridges are numbered along the chain shown (N, C = ends). [ ]: non-standard residue; d: D form. X36 = CC[C@H](C)[C@@H](N[*:1])[C@@H](O)CC(=O)O[C@H](C(=O)[C@H](C)C(=O)[*:2])C(C)C; NMeY = CN[C@@H](Cc1ccc(O)cc1)C(=O)O

Experiments:
Experiment in all cases: growth of human tumour cells (NCI), 48 h
786-0 = tested on: 786-0
ACHN = tested on: ACHN
HL-60 = tested on: HL-60
HOP-62 = tested on: HOP-62
KM12 = tested on: KM12
MCF7 = tested on: MCF7
MOLT-4 = tested on: MOLT-4
OVCAR-3 = tested on: OVCAR-3
PC-3 = tested on: PC-3
SF-268 = tested on: SF-268
SF-295 = tested on: SF-295
SF-539 = tested on: SF-539
SNB-75 = tested on: SNB-75
SR = tested on: SR
SW-620 = tested on: SW-620
UO-31 = tested on: UO-31
A498 = tested on: A498
T47D = tested on: T47D
COLO 205 = tested on: COLO 205
MDA-MB-231 = tested on: MDA-MB-231

Measured: GI50

CC[C@H](C)[C@H]1NC(=O)[C@@H](N)[C@@H](C)OC(=O)[C@H](Cc2ccc(OC)cc2)N(C)C(=O)[C@@H]2CCCN2C(=O)[C@H](CC(C)C)NC(=O)[C@@H](C)C(=O)[C@H](C(C)C)OC(=O)C[C@@H]1O (H-T[X36]LP[NMeY](Me); ester 1-C)
inactive: 786-0 93.8 µM | ACHN 29.1 µM | HL-60 11.7 µM | HOP-62 14.7 µM | KM12 9.35 µM | MCF7 33.7 µM | MOLT-4 6.85 µM | OVCAR-3 20.6 µM | PC-3 14.3 µM | SF-268 49.5 µM | SF-295 29.4 µM | SF-539 26.8 µM | SNB-75 13.2 µM | SR 16.3 µM | SW-620 19.5 µM | UO-31 6.62 µM

C[N+](C)(C)C1(C(=O)[O-])CC1
inactive: 786-0 > 100 µM | A498 > 100 µM | ACHN > 100 µM | HL-60 > 100 µM | HOP-62 > 100 µM | MCF7 > 100 µM | MOLT-4 > 100 µM | OVCAR-3 > 100 µM | PC-3 > 100 µM | SF-268 > 100 µM | SF-295 > 100 µM | SF-539 > 100 µM | SNB-75 > 100 µM | SR > 100 µM | SW-620 > 100 µM | T47D 72.1 µM

O=C1c2ccccc2C(=O)N1/N=C\c1ccc(Br)cc1
inactive: 786-0 > 10 µM | A498 > 10 µM | ACHN > 10 µM | COLO 205 > 100 µM | HL-60 > 10 µM | HOP-62 > 10 µM | KM12 > 10 µM | MOLT-4 > 10 µM | OVCAR-3 > 10 µM | SF-268 > 10 µM | SF-295 > 10 µM | SF-539 > 10 µM | SNB-75 > 10 µM | SR > 10 µM | SW-620 > 10 µM | UO-31 > 10 µM

O=C(COc1ccc(OCC(=O)N2C(=O)CN(c3ccc(Cl)cc3)C2=S)cc1)N1C(=O)CN(c2ccc(Cl)cc2)C1=S
inactive: 786-0 22.9 µM | A498 22.1 µM | ACHN 26.4 µM | COLO 205 25.6 µM | KM12 18.9 µM | MCF7 34 µM | MDA-MB-231 19.8 µM | MOLT-4 33.7 µM | PC-3 23.9 µM | SF-268 27.2 µM | SF-295 29 µM | SNB-75 40.6 µM | SW-620 31.3 µM | UO-31 29 µM

CCOC(=O)C12C(C(=O)OC)=C(C)N(NC(=O)Nc3ccccc3)C1(N)N(NC(=O)Nc1ccccc1)C(C)=C2C(=O)OC (configuration not stated)
inactive: 786-0 39.5 µM | A498 30.1 µM | ACHN 34.1 µM | COLO 205 > 41.1 µM | HL-60 23.6 µM | HOP-62 20.5 µM | KM12 19.2 µM | MOLT-4 17.9 µM | OVCAR-3 22.9 µM | SF-268 31.3 µM | SF-295 26.1 µM | SF-539 18.9 µM | SNB-75 33.7 µM | SR 22 µM | SW-620 40.6 µM | UO-31 40 µM

O=C(O)CCC(N/C=C1/N=C(c2ccccc2)OC1=O)C(=O)O (configuration not stated)
inactive: 786-0 > 100 µM | A498 > 100 µM | ACHN > 100 µM | COLO 205 > 100 µM | HL-60 10 µM | HOP-62 > 100 µM | KM12 > 100 µM | MOLT-4 > 100 µM | OVCAR-3 > 100 µM | SF-268 > 100 µM | SF-295 > 100 µM | SF-539 > 100 µM | SNB-75 > 100 µM | SR > 100 µM | SW-620 > 100 µM | UO-31 > 100 µM

CC(C)N(C(=O)C12C3C4C5(C#N)C3C1(I)C5C42I)C(C)C (configuration not stated)
inactive: 786-0 > 46.1 µM | A498 > 100 µM | ACHN > 100 µM | COLO 205 > 42 µM | HL-60 > 47.4 µM | HOP-62 > 100 µM | KM12 > 100 µM | MOLT-4 > 100 µM | OVCAR-3 > 100 µM | SF-268 > 100 µM | SF-295 > 100 µM | SF-539 > 60.8 µM | SNB-75 > 70.3 µM | SR 37.8 µM | SW-620 > 27 µM | UO-31 > 100 µM

Nc1nc(NNc2ccccc2F)cc(=O)[nH]1
inactive: 786-0 58.1 µM | A498 > 100 µM | ACHN > 100 µM | COLO 205 97.1 µM | HL-60 56.8 µM | HOP-62 > 100 µM | KM12 > 100 µM | MCF7 > 100 µM | MDA-MB-231 > 100 µM | MOLT-4 > 100 µM | OVCAR-3 > 100 µM | PC-3 > 100 µM | SF-295 > 100 µM | SF-539 > 100 µM | SR > 100 µM | SW-620 > 100 µM | UO-31 > 100 µM

COC(=O)[C@@]12C(=O)CCC(=O)C1C1C(=CC2C)O[C@@H]2OC3(CCCCC3)O[C@H]12 (some centres not stated)
inactive: 786-0 > 83.6 µM | A498 > 100 µM | ACHN > 55.1 µM | COLO 205 > 68.1 µM | HL-60 25.8 µM | HOP-62 > 100 µM | KM12 64.1 µM | MOLT-4 27.4 µM | OVCAR-3 34.8 µM | SF-268 > 91.2 µM | SF-295 > 100 µM | SF-539 > 100 µM | SNB-75 > 85.1 µM | SR 25.9 µM | SW-620 48.1 µM | UO-31 > 100 µM

Cc1c(NC(=O)CCl)c(=O)oc2c(C)c3occc(=O)c3cc12
inactive: 786-0 13.9 µM | A498 16.9 µM | ACHN 16.6 µM | COLO 205 14.3 µM | HL-60 5.28 µM | HOP-62 13.8 µM | KM12 11.7 µM | MCF7 6.79 µM | MOLT-4 1.37 µM | SF-268 6.95 µM | SF-295 12.6 µM | SNB-75 2.39 µM | SR 6.49 µM | SW-620 11.5 µM | T47D 14 µM | UO-31 10.5 µM

CCc1c(O)nc(Nc2nc3ccccc3[nH]2)[nH]c1=O
inactive: 786-0 > 100 µM | A498 > 100 µM | ACHN > 100 µM | COLO 205 > 100 µM | HL-60 > 100 µM | HOP-62 > 100 µM | MCF7 > 100 µM | MDA-MB-231 > 100 µM | OVCAR-3 > 100 µM | PC-3 > 100 µM | SF-268 > 100 µM | SF-295 > 100 µM | SF-539 > 100 µM | SNB-75 > 100 µM | SR 92.9 µM | SW-620 > 100 µM | UO-31 > 100 µM

N#CN=C(NCc1ccccc1)NCc1ccccc1
inactive: 786-0 > 60.7 µM | A498 > 100 µM | ACHN > 64.9 µM | COLO 205 > 42.9 µM | HL-60 > 100 µM | HOP-62 > 100 µM | KM12 > 100 µM | MOLT-4 > 100 µM | OVCAR-3 > 100 µM | SF-268 18.2 µM | SF-295 > 100 µM | SF-539 > 100 µM | SNB-75 > 100 µM | SR 27.9 µM | SW-620 > 44 µM | UO-31 > 100 µM
